Source: paper PMC8610590 (Journal of Virology, 2021)
Where two headings read alike, the source gives them in different places.

Columns and labels:
[1] = test system: pseudotyped lentiviral particles expressing Spike glycoprotein of SARS-CoV-2; experiment: microbe, parasite or virus in culture; type: cell-based
SARS-CoV-2 = type: cell-based
[2] = molecular target: ACE2: SARS-CoV-2 Spike RBD (UniProt P0DTC2+Q9BYF1); experiment: ACE2: SARS-CoV-2 Spike RBD inhibitor screening assay; type: binding, human ACE2 / SARS-CoV-2
[3] = MTT cell viability assay, Vero-STAT1 knockout; type: cell-based; conditions: African green monkey
[4] = test system: SARS-CoV-2 isolate USA-WI1/2020; experiment: Antiviral activity against live SARS-CoV-2 in UNCN1T cells; type: cell-based; conditions: for antiviral efficacy against live SARS-CoV-2 (in words): UNCN1T cells, compared to DMSO vehicle control, data not shown
[5] = test system: SARS-CoV-2 isolate USA-WI1/2020; experiment: microbe, parasite or virus in culture; type: cell-based
[6] = test system: SARS-CoV-2 isolate USA-WI1/2020; type: cell-based
[7] = Severe acute respiratory syndrome coronavirus 2, read-out: IC50, inhibition of SARS-CoV-2 replication
[8] = read-out: IC50, inhibition of SARS-CoV-2 replication

SMILES	pseudotype viral entry inhibition (in words) [1]	SARS-CoV-2 infection compared with vehicle controls (in words) (SARS-CoV-2)	IC50 [2] [nM]	CC50 at 72 h [3] [nM]	antiviral efficacy against live SARS-CoV-2 (in words) [4]	further results
CN1C(=O)c2ccccc2[S+]([O-])c2cc([N+](=O)[O-])ccc2S1(=O)=O (stereo not drawn) [MU-UNMC-1, 6-methyl-2-nitrodibenzo[d,g][1,6,2]dithiazocin-7(6H)-one 5,5,12-trioxide]	low level of viral entry inhibition with a slight increase at higher concentrations	no significant difference	< 250	6210	–	IC50 [4, 7]: 670 nM; IC50 [4, 8]: 1160 nM; IC50 [5, 7]: 5350 nM; IC50 [5, 8]: 2940 nM
CCn1c(SCC(=O)N2CCCc3ccccc32)nnc1-c1cccs1 [MU-UNMC-6, 1-(3,4-dihydroquinolin-1(2H)-yl)-2-((4-ethyl-5-(thiophen-2-yl)-4H-1,2,4-triazol-3-yl)thio) ethanone]	failed to prevent the pseudovirus entry	–	1910	–	did not see any reduction in viral replication kinetics	–
CN(C)/C=C1\N=C(c2cccnc2Oc2ccc(Cl)cc2)OC1=O [MU-UNMC-8, (Z)-2-(2-(4-chlorophenoxy)pyridin-3-yl)-4-((dimethylamino)methylene)oxazol-5(4H)-one]	failed to prevent the pseudovirus entry	–	> 5000	–	did not see any reduction in viral replication kinetics	–
CCC(CC)COC(=O)[C@H](C)N[P@](=O)(OC[C@H]1O[C@@](C#N)(c2ccc3c(N)ncnn23)[C@H](O)[C@@H]1O)Oc1ccccc1 [RDV, remdesivir]	–	–	–	–	–	reduction in dosages in combination [6]: 2.3 fold; dose reduction index (DRI) ([6]; RDV/MU-UNMC-2 combination, UNCN1T cells, CompuSyn): 2.33
OC(CNCCNc1ncccc1C(F)(F)F)Cn1ccc2ccccc21 (stereo not drawn) [MU-UNMC-7, 1-(1H-indol-1-yl)-3-((2-((3-(trifluoromethyl)pyridin-2-yl)amino)ethyl)amino)propan-2-ol]	failed to prevent the pseudovirus entry	–	> 5000	–	did not see any reduction in viral replication kinetics	–
O=C1Nc2cc(C(F)(F)F)ccc2Oc2ccsc21 [MU-UNMC-2, 7-(trifluoromethyl) benzo[b]thieno[2,3-f][1,4]oxazepin-10(9H)-one]	significant and robust viral entry inhibition across a broad concentration range	no significant difference	–	7130	–	IC50 ([1]; Severe acute respiratory syndrome coronavirus 2, 48 h, read-out: IC50, inhibition of entry of pseudotyped lentiviral particles): 840 nM; reduction in dosages in combination ([6]; RDV/MU-UNMC-2 combination, human bronchial epithelial cell line): 28.3 fold
